Drawing on US12679807B2 (MERCK SHARP & DOHME LLC, priority 2020, dated 2026), this text covers EC50 for 32 compounds.

A word on the EC50: it is the concentration giving half of the maximal effect. A low value points to an effect from little substance.

The assay deals with T1, GCS enzyme contained within Golgi preparations isolated from human A375 malignant melanoma skin cells (Homo sapiens, UniProt Q16739).
T1 construct: endogenous levels of GCS enzyme contained within Golgi preparations isolated from human A375 malignant melanoma skin cells; endogenous in cells; host or cells: A375 human malignant melanoma cells (crude Golgi preparation)
T1 sequence (Q16739 1-394): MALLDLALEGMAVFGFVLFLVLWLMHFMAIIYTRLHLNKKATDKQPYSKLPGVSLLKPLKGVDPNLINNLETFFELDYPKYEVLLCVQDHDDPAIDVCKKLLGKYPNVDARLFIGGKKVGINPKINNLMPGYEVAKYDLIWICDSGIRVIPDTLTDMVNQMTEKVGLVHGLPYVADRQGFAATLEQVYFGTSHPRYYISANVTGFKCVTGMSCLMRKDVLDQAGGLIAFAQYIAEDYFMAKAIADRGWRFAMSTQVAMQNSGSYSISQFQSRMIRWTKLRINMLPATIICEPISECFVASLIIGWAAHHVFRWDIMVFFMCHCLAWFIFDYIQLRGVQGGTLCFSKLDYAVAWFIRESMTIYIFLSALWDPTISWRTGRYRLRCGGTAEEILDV
Put plainly: UDP-Glo glucosylceramide synthase biochemical assay. Conditions: crude Golgi preparation from A375 cells; C6 ceramide and UDP-glucose substrates; 20 h incubation at room temperature; UDP detected by luminescence. The procedure, abridged:
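Endogenous enzyme in A375 Golgi preparations (1.5 μg total protein) was preincubated 30 min with compound, then reacted 20 h at room temperature with UDP-glucose and ceramide.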
In the case of `Cc1nn(C)c2ccc(-c3cccc4c3C(=O)N([C@H](C3CC3)C(C)(C)O)C4)cc12` [Compound 86, (R)-2-(1-cyclopropyl-2-hydroxy-2-methylpropyl)-7-(1,3-dimethyl-1H-indazol-5-yl)isoindolin-1-one], the EC50 came to 0.58 nM. This lies in the sub-nanomolar range.

As for `Cc1cc2c(cnn2C)cc1-c1cccc2c1C(=O)N([C@H](C1CC1)C(C)(C)O)C2` [Compound 87, (R)-2-(1-cyclopropyl-2-hydroxy-2-methylpropyl)-7-(1,6-dimethyl-1H-indazol-5-yl)isoindolin-1-one], the concentration giving a half-maximal response (EC50) is 9.5 nM.

As for `Cc1nc(-c2ccc(-c3cccc4c3C(=O)N([C@H](C3CC3)C(C)(C)O)C4)cc2)no1` [Compound 88, (R)-2-(1-cyclopropyl-2-hydroxy-2-methylpropyl)-7-(4-(5-methyl-1,2,4-oxadiazol-3-yl)phenyl)isoindolin-1-one], it took 90 nM to reach a half-maximal effect (EC50).

`CC(C)(O)[C@@H](C1CC1)N1Cc2cccc(-c3cnn(-c4ccncc4)c3)c2C1=O` [Compound 89, (R)-2-(1-cyclopropyl-2-hydroxy-2-methylpropyl)-7-(1-(pyridin-4-yl)-1H-pyrazol-4-yl)isoindolin-1-one] showed a concentration giving a half-maximal response (EC50) of 420 nM. Compared with the last compound, the EC50 is about 4.7-fold higher.

As for `Cc1cc(-c2ccc(-c3cccc4c3C(=O)N([C@H](C3CC3)C(C)(C)O)C4)cc2)on1` [Compound 90, (R)-2-(1-cyclopropyl-2-hydroxy-2-methylpropyl)-7-(4-(3-methylisoxazol-5-yl)phenyl)isoindolin-1-one], a half-maximal effect (EC50) was put at 2 nM. Compared with the last compound, the EC50 is about 210-fold lower.

On to `Cc1ncc(-c2ccc(-c3cccc4c3C(=O)N([C@H](C3CC3)C(C)(C)O)C4)cc2)o1` [Compound 91, 2-[(1R)-1-cyclopropyl-2-hydroxy-2-methyl-propyl]-7-[4-(2-methyloxazol-5-yl)phenyl]isoindolin-1-one], for which the EC50 worked out at 520 nM.

The compound `CC(C)(O)[C@@H](C1CC1)N1Cc2cccc(-c3cc(Cl)cc(C#N)n3)c2C1=O` [Compound 92, 4-chloro-6-[2-[(1R)-1-cyclopropyl-2-hydroxy-2-methyl-propyl]-3-oxo-isoindolin-4-yl]pyridine-2-carbonitrile] had an EC50 of 33 nM.

`COc1cc(Cl)nc(-c2cccc3c2C(=O)N([C@H](C2CC2)C(C)(C)O)C3)c1` [Compound 93, (R)-7-(6-chloro-4-methoxypyridin-2-yl)-2-(1-cyclopropyl-2-hydroxy-2-methylpropyl)isoindolin-1-one] gave a half-maximal effective concentration (EC50) of 55 nM.

Consider `Cn1cc(-c2ccc(-c3cccc4c3C(=O)N([C@H](C3CC3)C(C)(C)O)C4)cc2)nn1` [Compound 94, 2-[(1R)-1-cyclopropyl-2-hydroxy-2-methyl-propyl]-7-[4-(1-methyltriazol-4-yl)phenyl]isoindolin-1-one], for which the midpoint of the response, the EC50, lay at 24 nM.

Regarding `CC(C)(O)[C@@H](C1CC1)N1Cc2cccc(-c3ccc(-c4cnsc4)cc3)c2C1=O` [Compound 95, (R)-2-(1-cyclopropyl-2-hydroxy-2-methylpropyl)-7-(4-(isothiazol-4-yl)phenyl)isoindolin-1-one], the EC50 was determined as 83 nM. This EC50 lies about 3.5-fold higher than the previous one.

In turn, `Cc1c(CO)noc1-c1ccc(-c2cccc3c2C(=O)N([C@H](C2CC2)C(C)(C)O)C3)cc1` [Compound 96, 2-[(1R)-1-cyclopropyl-2-hydroxy-2-methyl-propyl]-7-[4-[3-(hydroxymethyl)-4-methyl-isoxazol-5-yl]phenyl]isoindolin-1-one] registered an EC50 of 1.4 nM.

The compound `COc1cc(C#N)nc(-c2cccc3c2C(=O)N([C@H](C2CC2)C(C)(C)O)C3)c1` [Compound 97, (R)-6-(2-(1-cyclopropyl-2-hydroxy-2-methylpropyl)-3-oxoisoindolin-4-yl)-4-methoxypicolinonitrile] came in with a 50% effective concentration (EC50) of 12 nM. Against the preceding compound, the EC50 is about 8.6-fold higher.

Regarding `CCOc1ccccc1C(=O)Nc1cccc2c1C(=O)N(C(C1CC1)C1CC1)C2` [Compound 98, N-(2-(Dicyclopropylmethyl)-3-oxoisoindolin-4-yl)-2-ethoxybenzamide], the 50% effective concentration (EC50) was 43 nM.

In the case of `CCOc1ccccc1C(=O)Nc1cccc2c1C(=O)N([C@H](C)C(C)(C)O)C2` [Compound 99, (R)-2-Ethoxy-N-(2-(3-hydroxy-3-methylbutan-2-yl)-3-oxoisoindolin-4-yl)benzamide], the 50% effective concentration (EC50) was 140 nM.

For `CCOc1ccccc1C(=O)Nc1cccc2c1C(=O)N([C@@H](CO)C(C)C)C2` [Compound 100, (R)-2-ethoxy-N-(2-(1-hydroxy-3-methylbutan-2-yl)-3-oxoisoindolin-4-yl)benzamide], the EC50 turned out to be 150 nM.

As to `CCOc1ccccc1C(=O)Nc1cccc2c1C(=O)N([C@@H](CO)C1CC1)C2` [Compound 102, (R)-N-(2-(1-cyclopropyl-2-hydroxyethyl)-3-oxoisoindolin-4-yl)-2-ethoxybenzamide], the concentration for a half-maximal effect (EC50) stood at 260 nM.

For `CCOc1ccccc1C(=O)Nc1cccc2c1C(=O)N([C@@H]1CCCC[C@@H]1O)C2` [Compound 103, 2-ethoxy-N-(2-((1R,2S)-2-hydroxycyclohexyl)-3-oxoisoindolin-4-yl)benzamide], the 50% effective concentration (EC50) turned out to be 450 nM. Against the preceding compound, the EC50 is about 1.7-fold higher.

`CCOc1ccccc1C(=O)Nc1cccc2c1C(=O)N(CC1(O)CCC1)C2` [Compound 105, 2-ethoxy-N-(2-((1-hydroxycyclobutyl)methyl)-3-oxoisoindolin-4-yl)benzamide] returned an EC50 of 650 nM.

In turn, `CCOc1ccccc1C(=O)Nc1cccc2c1C(=O)N(CC1(O)COC1)C2` [Compound 106, 2-ethoxy-N-(2-((3-hydroxyoxetan-3-yl)methyl)-3-oxoisoindolin-4-yl)benzamide] yielded an EC50 of 720 nM.

Turning to `O=C(Nc1cccc2c1C(=O)N(C(C1CC1)C1CC1)C2)c1c(Br)ccc2c1OCO2` [Compound 109, 5-Bromo-N-(2-(dicyclopropylmethyl)-3-oxoisoindolin-4-yl)-benzo[d][1,3]dioxole-4-carboxamide], the EC50 is 2 nM.

On to `Cc1cnc2c(c1C(=O)Nc1cccc3c1C(=O)N(C(C1CC1)C1CC1)C3)OCO2` [Compound 117, N-(2-(dicyclopropylmethyl)-3-oxoisoindolin-4-yl)-6-methyl-[1,3]dioxolo[4,5-b]pyridine-7-carboxamide], for which the EC50 was 5.2 nM.

Compound `O=C(Nc1cccc2c1C(=O)N(C(C1CC1)C1CC1)C2)c1c(Cl)cnc2c1OCO2` [Compound 118, 6-chloro-N-(2-(dicyclopropylmethyl)-3-oxoisoindolin-4-yl)-[1,3]dioxolo[4,5-b]pyridine-7-carboxamide] came in with a concentration for a half-maximal effect (EC50) of 5.7 nM.

As to `O=C(Nc1cccc2c1C(=O)N(C(C1CC1)C1CC1)C2)c1ccnc2c1CCC2` [Compound 121, N-(2-(dicyclopropylmethyl)-3-oxoisoindolin-4-yl)-6,7-dihydro-5H-cyclopenta[b]pyridine-4-carboxamide], the EC50 came out at 15 nM.

`Cc1ccc(Cl)c(C(=O)Nc2cccc3c2C(=O)N([C@@H](CO)C(C)C)C3)c1F` [Compound 122, (R)-6-chloro-2-fluoro-N-(2-(1-hydroxy-3-methylbutan-2-yl)-3-oxoisoindolin-4-yl)-3-methylbenzamide]: it took 18 nM to reach a half-maximal effect (EC50).

In turn, `C[C@@H](N1Cc2cccc(NC(=O)c3c(Cl)ccc(F)c3Cl)c2C1=O)C(C)(C)O` [Compound 123, (R)-2,6-dichloro-3-fluoro-N-(2-(3-hydroxy-3-methylbutan-2-yl)-3-oxoisoindolin-4-yl)benzamide] had an EC50 of 26 nM. This EC50 and that of the compound before are within 1.5-fold of each other.

Take `CC(C)[C@H](CO)N1Cc2cccc(NC(=O)c3c(Cl)ccc(F)c3Cl)c2C1=O` [Compound 124, (R)-2,6-dichloro-3-fluoro-N-(2-(1-hydroxy-3-methylbutan-2-yl)-3-oxoisoindolin-4-yl)benzamide]: the half-maximal effective concentration (EC50) is 26 nM.

Turning to `CC(C)[C@H](CO)N1Cc2cccc(NC(=O)c3nc(C(F)(F)F)ccc3Cl)c2C1=O` [Compound 125, (R)-3-chloro-N-(2-(1-hydroxy-3-methylbutan-2-yl)-3-oxoisoindolin-4-yl)-6-(trifluoromethyl)picolinamide], a half-maximal response (EC50) required 30 nM.

`Cn1ccc2c(C(=O)Nc3cccc4c3C(=O)N(C(C3CC3)C3CC3)C4)cccc21` [Compound 126, N-(2-(dicyclopropylmethyl)-3-oxoisoindolin-4-yl)-1-methyl-1H-indole-4-carboxamide]: the midpoint of the response, the EC50, lay at 35 nM.

On to `C[C@@H](N1Cc2cccc(NC(=O)c3c(C(F)(F)F)cnc4ccccc34)c2C1=O)C(C)(C)O` [Compound 127, (R)-N-(2-(3-hydroxy-3-methylbutan-2-yl)-3-oxoisoindolin-4-yl)-3-(trifluoromethyl)quinoline-4-carboxamide], for which the EC50 is 38 nM.

The compound `O=C(Nc1cccc2c1C(=O)N(CC1CC1)C2)c1c2c(nc3ccccc13)CCC2` [Compound 128, N-(2-(cyclopropylmethyl)-3-oxoisoindolin-4-yl)-2,3-dihydro-1H-cyclopenta[b]quinoline-9-carboxamide] registered an EC50 of 38 nM.

Compound `C[C@@H](N1Cc2cccc(NC(=O)c3nc(C(F)(F)F)ccc3Cl)c2C1=O)C(C)(C)O` [Compound 129, (R)-3-chloro-N-(2-(3-hydroxy-3-methylbutan-2-yl)-3-oxoisoindolin-4-yl)-6-(trifluoromethyl)picolinamide] displayed an EC50 of 38 nM.

With `O=C(Nc1cccc2c1C(=O)N(CC1CC1)C2)c1c(C(F)(F)F)cnc2ccccc12` [Compound 130, N-(2-(cyclopropylmethyl)-3-oxoisoindolin-4-yl)-3-(trifluoromethyl)quinoline-4-carboxamide], the midpoint of the response, the EC50, lay at 40 nM. The EC50 values of the last two compounds are within 1.5-fold of each other.
